Measurements reported in patent US8309718B2, “4-pyrazolyl-N-arylpyrimidin-2-amines and 4-pyrazolyl-N-heteroarylpyrimidin-2-amines as janus kinase inhibitors” (Incyte Corporation, priority 2007, dated 2012).
pIC50: −log10 of the molar value.

biological target: T1, human JAK2 (Homo sapiens, UniProt O60674); experiment: In vitro JAK kinase assay (HTRF, phosphorylation of biotinylated peptide); format: biochemical; conditions: catalytic domain a.a. 828-1132, 30 μM ATP, 500 nM peptide, room temperature 1 hr; read-out: JAK-2 IC50
T1 construct: JAK2 (a.a. 828-1132); His tag (N); made in house; host or cells: insect cells (baculovirus)
Outline: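 His-tagged human JAK2 catalytic domain (a.a. 828-1132), baculovirus/insect-cell expressed; phosphorylation of 500 nM biotinylated peptide at 30 μM ATP in 50 mM Tris pH 7.8, 100 mM NaCl, 5 mM DTT, 0.01% BSA. 1 h at room temperature, EDTA stop, HTRF read (Eu-Py20/SA-APC); IC50.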

T1 sequence (O60674 828-1132): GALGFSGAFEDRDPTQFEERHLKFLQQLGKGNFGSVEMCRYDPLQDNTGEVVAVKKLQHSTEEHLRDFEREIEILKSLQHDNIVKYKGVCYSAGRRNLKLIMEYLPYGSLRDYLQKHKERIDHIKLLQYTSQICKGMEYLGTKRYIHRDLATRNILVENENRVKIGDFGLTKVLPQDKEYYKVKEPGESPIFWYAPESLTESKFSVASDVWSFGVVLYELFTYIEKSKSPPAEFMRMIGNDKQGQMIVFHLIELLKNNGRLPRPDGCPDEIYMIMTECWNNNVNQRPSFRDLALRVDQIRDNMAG

Structure (SMILES)	pIC50
N#CCC(C1CCCC1)n1cc(-c2ccnc(Nc3ccc(C(=O)N4CCC4)cc3)n2)cn1 (racemic) [Example 128, 3-(4-(2-(4-(azetidine-1-carbonyl)phenylamino)pyrimidin-4-yl)-1H-pyrazol-1-yl)-3-cyclopentylpropanenitrile]	> 7.00
Cc1cc(OC2CCC(CC#N)(n3cc(-c4ccnc(Nc5cccc(-c6cnco6)c5)n4)cn3)CC2)no1 (single isomer, unassigned) [Example 247, 2-(4-(5-methylisoxazol-3-yloxy)-1-(4-(2-(3-(oxazol-5-yl)phenylamino)pyrimidin-4-yl)-1H-pyrazol-1-yl)cyclohexyl)acetonitrile]	> 7.00
N#CCC(C1CCCC1)n1cc(-c2ccnc(Nc3cccc(C(=O)N4CCN(CCO)CC4)c3)n2)cn1 (racemic) [Example 138, 3-cyclopentyl-3-(4-(2-(3-(4-(2-hydroxyethyl)piperazine-1-carbonyl)phenylamino)pyrimidin-4-yl)-1H-pyrazol-1-yl)propanenitrile]	> 7.00
N#CCC1(n2cc(-c3ccnc(Nc4ccc(-c5cnco5)cc4)n3)cn2)CN(S(=O)(=O)C2CC2)C1 [Example 21, 2-(1-(cyclopropylsulfonyl)-3-(4-(2-(4-(oxazol-5-yl)phenylamino)pyrimidin-4-yl)-1H-pyrazol-1-yl)azetidin-3-yl)acetonitrile]	> 7.00
N#CCC(C1CCCC1)n1cc(-c2ccnc(Nc3ccc(N4CCCCC4=O)cc3)n2)cn1 (racemic) [Example 105, 3-cyclopentyl-3-(4-(2-(4-(2-oxopiperidin-1-yl)phenylamino)pyrimidin-4-yl)-1H-pyrazol-1-yl)propanenitrile]	> 7.00
CS(=O)(=O)CS(=O)(=O)Nc1ccc(Nc2nccc(-c3cnn(C(CC#N)C4CCCC4)c3)n2)cc1 (racemic) [Example 184, N-(4-(4-(1-(2-cyano-1-cyclopentylethyl)-1H-pyrazol-4-yl)pyrimidin-2-ylamino)phenyl)-1-(methylsulfonyl)methanesulfonamide]	> 7.00
CN(C)C(=O)c1ccc(Nc2nccc(-c3cnn(C(CC#N)C4CCCC4)c3)n2)cc1 (racemic) [Example 40, 4-(4-(1-(2-cyano-1-cyclopentylethyl)-1H-pyrazol-4-yl)pyrimidin-2-ylamino)-N,N-dimethylbenzamide]	> 7.00
N#CCC(C1CCCC1)n1cc(-c2ccnc(Nc3cccc(C(=O)N4CCC4)c3)n2)cn1 (racemic) [Example 142, 3-(4-(2-(3-(azetidine-1-carbonyl)phenylamino)pyrimidin-4-yl)-1H-pyrazol-1-yl)-3-cyclopentylpropanenitrile]	> 7.00
N#CCC(C1CCCC1)n1cc(-c2ccnc(Nc3ccc(NC(=O)CN4CCNC(=O)C4)cc3)n2)cn1 (racemic) [Example 206, N-(4-(4-(1-(2-cyano-1-cyclopentylethyl)-1H-pyrazol-4-yl)pyrimidin-2-ylamino)phenyl)-2-(3-oxopiperazin-1-yl)acetamide]	> 7.00
N#CCC(C1CCCC1)n1cc(-c2ccnc(Nc3cccc(NC(=O)CN4CCN(CCO)CC4)c3)n2)cn1 (racemic) [Example 240, N-(3-(4-(1-(2-cyano-1-cyclopentylethyl)-1H-pyrazol-4-yl)pyrimidin-2-ylamino)phenyl)-2-(4-(2-hydroxyethyl)piperazin-1-yl)acetamide]	> 7.00
N#CCC(C1CCC1)n1cc(-c2ccnc(Nc3ccc(N4CCOCC4)cc3)n2)cn1 (racemic) [Example 171, 3-cyclobutyl-3-(4-(2-(4-morpholinophenylamino)pyrimidin-4-yl)-1H-pyrazol-1-yl)propanenitrile]	> 7.00
N#CCC1(n2cc(-c3ccnc(Nc4ccc(C(=O)N5CC[C@@H](O)C5)cc4)n3)cn2)CC(C#N)C1 (single isomer, unassigned) [Example 290]	> 7.00
COc1cnc(Nc2cccc(C(=O)N3CC[C@@H](O)C3)c2)nc1-c1cnn(C(CC#N)C2CC2)c1 (mixture of isomers) [Example 325, 3-cyclopropyl-3-(4-{2-[(3-{[(3R)-3-hydroxypyrrolidin-1-yl]carbonyl}phenyl)amino]-5-methoxypyrimidin-4-yl}-1H-pyrazol-1-yl)propanenitrile]	> 7.00
CN(C(=O)c1ccc(Nc2nccc(-c3cnn(C(CC#N)C4CCCC4)c3)n2)cc1)C1CCOCC1 (racemic) [Example 218, 4-(4-(1-(2-cyano-1-cyclopentylethyl)-1H-pyrazol-4-yl)pyrimidin-2-ylamino)-N-methyl-N-(tetrahydro-2H-pyran-4-yl)benzamide]	> 7.00
N#CCC(C1CCCC1)n1cc(-c2ccnc(Nc3ccc(N4CCCS4(=O)=O)cc3)n2)cn1 (racemic) [Example 192, 3-cyclopentyl-3-(4-(2-(4-(1,1-dioxidoisothiazolidin-2-yl)phenyl)aminopyrimidin-4-yl)-1H-pyrazol-1-yl)propanenitrile]	> 7.00
COc1cnc(Nc2cccc(C(=O)N3CCC(O)CC3)c2)nc1-c1cnn(C(CC#N)C2CC2)c1 (racemic) [Example 329, 3-cyclopropyl-3-{4-[2-({3-[(4-hydroxypiperidin-1-yl)carbonyl]phenyl}amino)-5-methoxypyrimidin-4-yl]-1H-pyrazol-1-yl}propanenitrile]	> 7.00
N#CCC1(n2cc(-c3ccnc(Nc4ccc(C(=O)N5CCC(O)CC5)cc4)n3)cn2)CC(C#N)C1 (single isomer, unassigned) [Example 301, 3-(cyanomethyl)-3-(4-(2-(4-(4-hydroxypiperidine-1-carbonyl)phenylamino)pyrimidin-4-yl)-1H-pyrazol-1-yl)cyclobutanecarbonitrile]	> 7.00
N#CCC(C1CC1)n1cc(-c2ccnc(Nc3ccc(C(=O)N4CCC(C#N)CC4)cc3)n2)cn1 (racemic) [Example 318, 1-[4-({4-[1-(2-cyano-1-cyclopropylethyl)-1H-pyrazol-4-yl]pyrimidin-2-yl}amino)benzoyl]piperidine-4-carbonitrile]	> 7.00

Second part, the compound after the results:

pIC50	Structure (SMILES)
> 7.00	N#CCC(C1CCCC1)n1cc(-c2ccnc(Nc3ccc(C(=O)N4CCC(O)CC4)cc3)n2)cn1 (racemic) [Example 124, 3-cyclopentyl-3-(4-(2-(4-(4-hydroxypiperidine-1-carbonyl)phenylamino)pyrimidin-4-yl)-1H-pyrazol-1-yl)propanenitrile]
> 7.00	N#CCC(C1CC1)n1cc(-c2ccnc(Nc3ccc(-n4cccn4)cc3)n2)cn1 (racemic) [Example 178, 3-(4-(2-(4-(1H-pyrazol-1-yl)phenylamino)pyrimidin-4-yl)-1H-pyrazol-1-yl)-3-cyclopropylpropanenitrile]
> 7.00	N#CCC1(n2cc(-c3ccnc(Nc4ccc(C(N)=O)cc4)n3)cn2)CCN(S(=O)(=O)C2CC2)CC1 [Example 30, 4-(4-(1-(4-(cyanomethyl)-1-(cyclopropylsulfonyl)piperidin-4-yl)-1H-pyrazol-4-yl)pyrimidin-2-ylamino)benzamide]
> 7.00	N#CCC(C1CCCC1)n1cc(-c2ccnc(Nc3ccc(N4CCCOC4=O)cc3)n2)cn1 (racemic) [Example 106, 3-cyclopentyl-3-(4-(2-(4-(2-oxo-1,3-oxazinan-3-yl)phenylamino)pyrimidin-4-yl)-1H-pyrazol-1-yl)propanenitrile]
> 7.00	CS(=O)(=O)N1CCN(c2ccc(Nc3nccc(-c4cnn(C(CC#N)C5CCCC5)c4)n3)cc2)CC1 (racemic) [Example 54, 3-cyclopentyl-3-(4-(2-(4-(4-(methylsulfonyl)piperazin-1-yl)phenylamino)pyrimidin-4-yl)-1H-pyrazol-1-yl)propanenitrile]
> 7.00	CN(C)S(=O)(=O)Nc1ccc(Nc2nccc(-c3cnn(C(CC#N)C4CCCC4)c3)n2)cc1 (racemic) [Example 186, NA-(4-(4-(1-(2-cyano-1-cyclopentylethyl)-1H-pyrazol-4-yl)pyrimidin-2-ylamino)phenyl)-N,N-dimethylsulfamide]
> 7.00	CCS(=O)(=O)N1CC(CC#N)(n2cc(-c3ccnc(Nc4ccc(C(=O)N5CC[C@@H](NC(C)=O)C5)cc4)n3)cn2)C1 [Example 280, (R)—N-(1-(4-(4-(1-(3-(cyanomethyl)-1-(ethylsulfonyl)azetidin-3-yl)-1H-pyrazol-4-yl)pyrimidin-2-ylamino)benzoyl)pyrrolidin-3-yl)acetamide]
> 7.00	N#CCC(C1CCCC1)n1cc(-c2ccnc(Nc3cccc(C(=O)N4CCN(c5ccc(C#N)cc5)CC4)c3)n2)cn1 (racemic) [Example 166, 4-(4-(3-(4-(1-(2-cyano-1-cyclopentylethyl)-1H-pyrazol-4-yl)pyrimidin-2-ylamino)benzoyl)piperazin-1-yl)benzonitrile]
> 7.00	N#CCC(C1CCCC1)n1cc(-c2ccnc(Nc3ccc(N4CCOCC4=O)cc3)n2)cn1 (racemic) [Example 98, 3-cyclopentyl-3-(4-(2-(4-(3-oxomorpholino)phenylamino)pyrimidin-4-yl)-1H-pyrazol-1-yl)propanenitrile]
> 7.00	N#CCC(C1CCCC1)n1cc(-c2ccnc(Nc3ccc(C(=O)N4CC[C@H](F)C4)cc3)n2)cn1 (mixture of isomers) [Example 229, 3-cyclopentyl-3-(4-(2-(4-((S)-3-fluoropyrrolidine-1-carbonyl)phenylamino)pyrimidin-4-yl)-1H-pyrazol-1-yl)propanenitrile]
> 7.00	CC(=O)N1CCN(C(=O)c2ccc(Nc3nccc(-c4cnn(C5(CC#N)CC(C#N)C5)c4)n3)cc2)CC1 (single isomer, unassigned) [Example 298, 3-(4-(2-(4-(4-acetylpiperazine-1-carbonyl)phenylamino)pyrimidin-4-yl)-1H-pyrazol-1-yl)-3-(cyanomethyl)cyclobutanecarbonitrile]
> 7.00	Cc1cnc(Nc2ccc(C(=O)NCCO)cc2)nc1-c1cnn(C(CC#N)C2CCCC2)c1 (racemic) [Example 83, 4-(4-(1-(2-cyano-1-cyclopentylethyl)-1H-pyrazol-4-yl)-5-methylpyrimidin-2-ylamino)-N-(2-hydroxyethyl)benzamide]
